Measured values: US12410124B2 (priority 2019, dated 2025)
Where two headings read alike, the source gives them in different places.

How the values were obtained:
substantia nigra pp38 = test: Substantia nigra pp38 protein expression in MPTP Parkinson's disease model mouse (immunofluorescence); assay type: in vivo; conditions: percentage of mean intensity of blank control group, gavage 21 days after MPTP modeling
Protocol: (§1) Neurotoxins can be used to establish PD animal models. Currently, 1-methyl-4-phenyl-1,2,3,6-tetrahydropyridine (MPTP) is the sole synthetic toxin which is recognized to induce PD symptoms in human and non-human primates and in mice. Using MPTP subacute modeling method, C57BL/6J male mice were intraperitoneally injected with MPTP 30 mg/kg, once a day for 5 consecutive days. The experiment animals were divided into blank control group, MPTP model group, and compound treatment group. For the […] compound treatment group, the compound was administrated by gavage for 21 consecutive days after the completion of modeling; for the MPTP model group, the normal saline was administrated by gavage for 21 consecutive days after the completion of modeling; and for the blank control group, the normal saline was first intraperitoneally injected for 5 days, and then administrated by gavage for 21 days.
(§2) The p38 mitogen-activated protein kinase (p38 MAPK) is expressed in both neurons and glial cells, and is the intersection point of neuron-glial cell network information regulations. The activation of p38 signaling pathway is an important initiator of neuronal degeneration, which continuously induces the apoptosis of dopaminergic neurons in multiple ways. It has become a research hotspot for the treatment of PD. Studies have shown that the protective mechanism of CAPE against the death of primary cultured cerebellar granule neurons induced by glutamate lies in inhibiting the activation of p38 phosphorylation and in turn inhibiting the activation of the caspase 3 apoptotic pathway to prevent neuronal apoptosis. Therefore, the MPTP-induced PD mouse model can be used to investigate the inhibitory effect of the target compounds on the activation of p38 phosphorylation on the overall animal level.
(§3) Half of experiment mice in each group were taken to separate the midbrain after perfusion and fixation. The tissue was trimmed, and the substantia nigra-striatum area was taken to prepare paraffin sections. The double immunofluorescence staining for TH and phosphorylated p38 was performed to observe the coexpression of TH and phosphorylated p38, for the statistics of the change in the phosphorylated p38 protein expression. The experiment included blank control group, MPTP model group, positive control group (caffeic acid phenethyl ester, CAPE), prototype control group (styryl sulfone compounds 3B, 3C, 3D, and 3G, whose structures are shown as above), and target compound group.

substantia nigra TH = test: Substantia nigra TH expression in MPTP Parkinson's disease model mouse (immunofluorescence); assay type: in vivo; conditions: percentage of mean intensity of blank control group, gavage 21 days after MPTP modeling
Protocol: as §1
The main cause of PD lies in the pathological changes in the substantia nigra-striatum projection system of the brain and the progressive degeneration and loss of dopaminergic neurons. Tyrosine hydroxylase (TH) is the first enzyme in the biosynthesis of catecholamine neurotransmitters, as well as the first rate-limiting enzyme in the dopamine synthesis. It plays an important role in the synthesis and metabolism of the neurotransmitter DA. The TH in PD animal models and patients has a wide range of abnormal changes, from the gene expression to the enzyme protein content and enzyme activity. The detection of the TH expression in the midbrain and substantia nigra of PD model mice can be used to evaluate the neuroprotective activity of the compound.
as §3, with “TH” for “double”, “staining” for “staining for TH and phosphorylated p38”, “performed” for “performed to observe the coexpression of TH and phosphorylated p38, for the statistics of the change”, “brain sections of mice in each group. […]” for “phosphorylated p38 protein expression.”

midbrain pp38 = test: Midbrain pp38 protein expression in MPTP Parkinson's disease model mouse (western-blotting); assay type: in vivo; conditions: midbrain total protein, GAPDH internal reference, gavage 21 days after MPTP modeling
Protocol: as §1, §2
Half of experiment mice in each group were taken to extract the total midbrain protein, and the change in the midbrain phosphorylated p38 protein expression was determined by western-blotting using GAPDH as the internal reference. The experiment included blank control group, MPTP model group, positive control group (caffeic acid phenethyl ester, CAPE), prototype control group (styryl sulfone compounds 3B, 3C, 3D, and 3G, whose structures are shown as above), and target compound group.

primary glial cells = test: Inhibition of the NO release of primary glial cells induced by LPS; assay type: cell-based, rat; conditions: for inhibition at 2 µM / inhibition at 10 µM / inhibition at 5 µM / inhibition at 20 µM: Rattus norvegicus, Glial cell, read-out: NO inhibition (%)
Text: Lipopolysaccharide (LPS) is a main component of the cell wall of Gram-negative bacteria. It is a potent inflammatory factor that can directly activate gliocytes, and the activated gliocytes secrete a large amount of inflammation mediators such as tumor necrosis factor, interleukin, and nitric oxide, thus causing inflammatory reactions and oxidative stress reactions and eventually leading to neuronal denaturation and death. In recent years, the targeted injection of LPS into rat substantia nigra or striatum to induce neuroinflammation can successfully establish PD models, which can simulate most of the clinical manifestations and pathological features of PD, and are used for the study on the neuroinflammation mechanism associated with PD. LPS-induced primary glial cell PD inflammation model is suitable for the preliminary anti-neuroinflammation screening for neuroprotective agents. LPS is used to directly activate primary glial cells to simulate the pathogenesis mechanism of neuroinflammation, and the inhibitory activity of the target compounds on the inflammatory response of primary glial cells can be investigated.
The materials were taken from the brain tissue of fetal rat, for primary glial cell culture. At 7 to 10 days of the culture, LPS was added for the activation of nitric oxide (NO) release in glial cells. When a target compound was added, the reduction value for NO content in the cell culture medium was measured, to evaluate the anti-neuroinflammation activity of the compound. The experiment included blank control group, LPS model group, positive control group (caffeic acid phenethyl ester, CAPE), prototype control group (styryl sulfone compounds 3B, 3C, 3D, and 3G, the structures of which compounds are shown as above), and target compound group.

GCLC = test: Midbrain GCLC expression in MPTP Parkinson's disease model mouse (western blot); assay type: in vivo; conditions: for Expression (GCLC/GAPDH): midbrain, MPTP Parkinson's disease model mouse, western blot
Protocol: as §1
Oxidative stress is an important pathogenic mechanism of PD. Dopaminergic neurons are more sensitive to oxidative stress and are more susceptible to oxidative stress damage. Glutathione (GSH) is an important antioxidant substance in the cell, and glutamate cysteine ligase (GCL) is the rate-limiting enzyme for GSH synthesis, which is composed of catalytic subunit (GCLC) and regulatory subunit (GCLM). The increase of GCLC expression can promote the synthesis of GSH and enhance the ability of tissue cells against oxidative stress. GCL, a phase II enzyme, plays an important protective role by catalyzing the conversion of free radicals into non-toxic products and increasing their water solubility to facilitate the elimination of free radicals, and maintain the redox balance in the body. It plays an important role in the process of protecting cells against oxidative stress damage. The activation of p38 protein phosphorylation has a negative regulatory effect on phase II enzymes. […] Using GCLC as an indicator, the inhibitory effect of the target compounds on MPTP-induced oxidative stress damage in PD mice can be investigated.
GCLC is expressed in astrocytes, microglial cells, and neurons. The total proteins of the midbrain tissue of mice in each experiment group were extracted, to determine the expression of phase II enzyme GCLC in the midbrain of mice by western blot using GAPDH as the internal reference. The experiment included blank control group, MPTP model group, positive control group (caffeic acid phenethyl ester, CAPE), prototype control group (styryl sulfone compounds 3B, 3C, 3D), and 3G, whose structures are shown as above), and target compound group.

Row | Compound | Expression (Immunofluorescence intensity %) (substantia nigra pp38) [%] | Expression (Immunofluorescence intensity %) (substantia nigra TH) [%] | Expression (pp38/GAPDH) (midbrain pp38) | inhibition at 2 µM (primary glial cells; 2 μM) [%] | inhibition at 10 µM (primary glial cells; 10 μM) [%] | Expression (GCLC/GAPDH) (GCLC) | NO inhibitory rate compared with the styryl sulfone prototype compounds (primary glial cells) | inhibition at 5 µM (primary glial cells; 5 μM) [%] | inhibition at 20 µM (primary glial cells; 20 μM) [%] | midbrain GCLC expression compared with the styryl sulfone prototype compounds (GCLC) | inhibition at 2 µM (primary glial cells) [%] | inhibition at 5 µM (primary glial cells) [%] | inhibition at 10 µM (primary glial cells) [%] | inhibition at 20 µM (primary glial cells) [%]
1 | CC(=O)Oc1ccc(/C=C/S(=O)(=O)Cc2c(F)c(F)c(F)c(F)c2F)cc1OC(=O)NC(=O)c1ccc([N+](=O)[O-])c(C)c1 [Compound D5-4, (E)-2-[N-(3-methyl-4-nitrobenzoyl)carbamoyloxy]-4-{2-[(perfluorophenyl)mesyl]ethenyl}phenyl acetate] | 103.25 ± 15.27 | 99.86 ± 6.27 | 0.61 ± 0.07 | 24.3 ± 2.82 | 80.7 ± 4.06 | 0.97 ± 0.07 | – | – | – | – | – | – | – | –
2 | CCN(CC)C(=O)Oc1ccc(/C=C/S(=O)(=O)CCCc2ccccc2)cc1OC(=O)N(CC)CC [Compound C1-1, (E)-4-[2-(3-phenylpropylsulfonyl)ethenyl]-1,2-phenylenebis(diethylcarbamate)] | 108.71 ± 12.51 | 96.58 ± 6.15 | 0.63 ± 0.06 | – | 32.8 ± 5.25 | 1.34 ± 0.08 | equivalent or higher inhibitory rate | 17.6 ± 3.24 | 59.5 ± 4.33 | significantly higher | – | – | – | –
3 | CCN(C)C(=O)Oc1ccc(/C=C/S(=O)(=O)CC(c2ccc(-c3ccc(OC)c(OC)c3)cc2)[N+](=O)[O-])cc1OC(=O)N(C)CC (stereo not shown) [Compound M1-1, (E)-4-{2-[2-(3′,4′-dimethoxy-[1,1′-biphenyl]-4-yl)-2-nitroethylsulfonyl]ethenyl}-1,2-phenylenebis(N-ethyl-N-methylcarbamate)] | 98.35 ± 6.93 | 101.36 ± 5.21 | 0.40 ± 0.05 | – | – | 1.30 ± 0.09 | – | – | – | – | 38.3 ± 3.42 | 52.9 ± 5.36 | 82.7 ± 2.47 | –
4 | O=S(=O)(/C=C/c1ccc(O)c(O)c1)Cc1ccc(Cl)cc1 [Compound 3D, (E)-4-{2-[(4-chlorophenyl)mesyl]ethenyl}benzene-1,2-diol, reference compound] | 114.68 ± 21.42 | 87.38 ± 4.01 | 1.00 ± 0.11 | 23.5 ± 8.05 | 74.7 ± 3.32 | 0.53 ± 0.04 | – | 34.6 ± 4.89 | – | – | – | – | – | –
5 | O=S(=O)(/C=C/c1ccc(O)c(O)c1)Cc1ccc(C(F)(F)F)cc1 [Compound 3B, (E)-4-{2-[(4-trifluoromethylphenyl)mesyl]ethenyl}benzene-1,2-diol, reference compound] | 134.70 ± 31.07 | 83.18 ± 5.87 | 1.18 ± 0.08 | – | 38.6 ± 2.13 | 0.33 ± 0.04 | – | 17.2 ± 4.56 | 92 ± 3.01 | – | – | – | – | –
6 | COc1ccc(CC(=O)Oc2ccc(C(N)CS(=O)(=O)/C=C/c3ccc(OC(C)(C)C)c(OC(=O)N(C)c4ccccc4)c3)cc2)cc1 (stereo not shown) [Compound P1-3, (E)-4-{1-amino-2-[4-t-butoxy-3-(N-methyl-N-phenylcarbamoyloxy)styrylsulfonyl]ethyl}phenyl-2-(4-methoxyphenyl)acetate] | 81.90 ± 9.52 | 79.20 ± 6.53 | 0.33 ± 0.07 | – | – | 0.91 ± 0.11 | – | – | – | – | – | 25.8 ± 4.25 | 42 ± 5.34 | 58.2 ± 3.66
7 | O=S(=O)(/C=C/c1ccc(O)c(O)c1)CCCc1ccccc1 [Compound 3C, (E)-4-{2-[(3-phenylpropyl)sulfonyl]ethenyl}benzene-1,2-diol, reference compound] | 138.79 ± 27.44 | 74.63 ± 9.15 | 0.85 ± 0.22 | – | 24.6 ± 3.09 | 0.34 ± 0.05 | – | 9.24 ± 4.88 | 45.8 ± 5.25 | – | – | – | – | –
8 | C=CCOc1ccc(C/C=C/S(=O)(=O)/C=C/c2ccc(OC(C)=O)c(OC(=O)N(CC=C)CC=C)c2)cc1 [Compound K1-4, 4-{(E)-2-[(E)-3-(4-allyloxyphenyl)prop-1-en-1-yl]sulfonylethenyl}-2-(N,N-diallylcarbamoyloxy)phenyl acetate] | 100.80 ± 5.48 | 74.20 ± 6.58 | 0.44 ± 0.05 | 30.2 ± 4.01 | 77.4 ± 5.09 | 1.10 ± 0.07 | – | 53.5 ± 5.52 | – | – | – | – | – | –
9 | CC[Si](CC)(Oc1ccc(C(Cl)S(=O)(=O)/C=C/c2ccc(OC(=O)N3CC(C)OC(C)C3)c(OC(=O)c3cccc(Cl)c3OC)c2)cc1)c1ccccc1 (stereo not shown) [Compound R1-5, (E)-4-{2-[4-(diethylphenylsiloxy)phenylchloromesyl]ethenyl}-2-(3-chloro-2-methoxybenzoyloxy)phenyl-2,6-dimethylmorpholine-4-carboxylate] | 101.93 ± 7.44 | 92.45 ± 3.93 | 0.44 ± 0.07 | – | 48.5 ± 3.68 | 1.02 ± 0.09 | – | 23.8 ± 4.32 | 73.6 ± 3.92 | – | – | – | – | –
